Measured values published in patent US7517960B2, “Rat KCNQ5 voltage-gated potassium channel” (Wyeth, priority 2006, dated 2009).

Experiments:
rat KCNQ5 = test: Two-electrode voltage clamp recording of rat KCNQ5 expressed in Xenopus laevis oocytes; assay type: cell-based; details: homomeric rKCNQ5, cRNA-injected Xenopus laevis oocytes, recorded 48-72 hours after injection, FIG. 1B
Method: The electrodes were filled with 3 M KCl solution with resistances ranging from 0.5 to 1.5 MΩ.
For Examples 4 and 5, the cRNAs of rKONQ5 were injected directly into Xenopus laevis oocytes and the electrophysiological recordings were performed 48-72 hours after RNA injection using two-electrode voltage clamp recording (see Jow F and Wang K-W, Mol. Brain Res. 80:269-78 (2000) for methods). The electrodes were filled with 3 M KCI solution with resistances ranging from 0.5 to 1.5 MΩ. The bath solution pf pH 7.4 was a “ND96” containing the following (in mM): NaCI, 96; KCl, 2; CaCl21.8; MgCl2 1; HEPES, 10 (see FIG. 1A).

[1] = test system: rat KCNQ5/KCNQ3 heteromeric channels; test: Two-electrode voltage clamp recording of rKCNQ5 co-expressed with KCNQ3 in Xenopus laevis oocytes; assay type: cell-based; details: FIG. 2D
From the text: There is a significant increase in the current amplitude of the rat KCNQ5/KCNQ3 heteromeric channels compared with that of the rKCNQ5 or rat KCNQ3 homomeric channels. The homomeric channels here refer to those with only one type of channel subunits expressed in Xenopus laevis oocytes. In this case, it refers to either rKCNQ5 alone (FIG. 2A) or rat KCNQ3 alone (FIG. 2B). Heteromeric channels means that the functional channels are composed of subunits of both rKCNQ5 and rat KCNQ3 (FIG. 2C). It is believed that those functional channels are composed of 4 such subunits. Therefore, the functional channels are “tetramers”. If the 4 subunits are the same type (e.g. 4 rKCNQ5 subunits, or 4 rat KCNQ3 subunits), there are known as “homotetramers”. If the 4 subunits in these functional channels are different (e.g., 2 rKCNQ5+2 rat KCNQ3, or 3 rat KCNQ5+1 rat KCNQ3, etc.), they are known as “heterotetramers”.
For Examples 4 and 5, the cRNAs of rKONQ5 were injected directly into Xenopus laevis oocytes and the electrophysiological recordings were performed 48-72 hours after RNA injection using two-electrode voltage clamp recording (see Jow F and Wang K-W, Mol. Brain Res. 80:269-78 (2000) for methods). The electrodes were filled with 3 M KCI solution with resistances ranging from 0.5 to 1.5 MΩ. […]

O=C1c2ccccc2C(Cc2ccncc2)(Cc2ccncc2)c2ccccc21 [XE991]
KCNQ5 channel current amplitude (rat KCNQ5): decreased the current amplitude
current amplitudes of heterotetramer channels [1]: decrease
